Data published in US11173137B2, “Compositions and methods to modulate chloride ion channel activity” (The Board of Trustees of the Leland Stanford Junior …, priority 2018, dated 2021).
Values joined by “and” are separate entries in the source; they are usually repeats but may differ in a detail not shown here. Identical values can stand only once. Like-named read-outs stand apart in the source and are kept apart here.

Tests used:
CLC-2 [1] = target: T1, CLC-2 (Homo sapiens (Human), UniProt P51788); experiment: IonWorks Barracuda automated patch-clamp electrophysiology, human CLC-2 cell line; format: cell-based; conditions: for % inhibition at the concentration listed (in parenthesis): CLC-2, at the concentration listed in the IC50 cell, negative = increase in peak current
T1 sequence (P51788 whole entry): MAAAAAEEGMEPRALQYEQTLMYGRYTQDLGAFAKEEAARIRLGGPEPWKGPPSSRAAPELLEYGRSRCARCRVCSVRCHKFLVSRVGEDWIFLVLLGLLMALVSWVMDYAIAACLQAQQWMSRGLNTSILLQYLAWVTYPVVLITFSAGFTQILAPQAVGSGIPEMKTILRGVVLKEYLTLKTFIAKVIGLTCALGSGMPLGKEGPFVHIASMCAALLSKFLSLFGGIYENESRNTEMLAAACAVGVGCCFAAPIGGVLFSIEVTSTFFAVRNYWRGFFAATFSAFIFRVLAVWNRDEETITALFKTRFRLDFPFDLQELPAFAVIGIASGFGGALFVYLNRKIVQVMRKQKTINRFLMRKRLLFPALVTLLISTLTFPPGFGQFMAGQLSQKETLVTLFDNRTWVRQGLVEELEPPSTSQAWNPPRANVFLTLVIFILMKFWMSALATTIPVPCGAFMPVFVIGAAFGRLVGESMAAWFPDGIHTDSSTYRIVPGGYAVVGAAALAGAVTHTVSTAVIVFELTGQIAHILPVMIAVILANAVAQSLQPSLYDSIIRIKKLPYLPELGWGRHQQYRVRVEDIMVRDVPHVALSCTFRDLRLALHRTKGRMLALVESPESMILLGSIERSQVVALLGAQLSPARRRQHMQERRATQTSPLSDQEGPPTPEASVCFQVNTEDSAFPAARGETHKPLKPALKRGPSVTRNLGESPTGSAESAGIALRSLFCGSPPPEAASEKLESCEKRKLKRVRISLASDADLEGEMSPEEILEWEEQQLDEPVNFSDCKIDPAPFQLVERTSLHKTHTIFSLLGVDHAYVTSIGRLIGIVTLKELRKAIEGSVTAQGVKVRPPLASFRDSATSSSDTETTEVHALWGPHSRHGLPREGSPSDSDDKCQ
Excerpt: FIG. 8, panels A and B depict graphically the Selectivity between CLC-1 and CLC-2. […]

CLC-1 = CLC-1 (Homo sapiens (Human), UniProt P35523); experiment: IonWorks Barracuda automated patch-clamp electrophysiology, CLC-1; format: cell-based; conditions: for IC50: Table 2
Sequence of CLC-1 (P35523 whole entry): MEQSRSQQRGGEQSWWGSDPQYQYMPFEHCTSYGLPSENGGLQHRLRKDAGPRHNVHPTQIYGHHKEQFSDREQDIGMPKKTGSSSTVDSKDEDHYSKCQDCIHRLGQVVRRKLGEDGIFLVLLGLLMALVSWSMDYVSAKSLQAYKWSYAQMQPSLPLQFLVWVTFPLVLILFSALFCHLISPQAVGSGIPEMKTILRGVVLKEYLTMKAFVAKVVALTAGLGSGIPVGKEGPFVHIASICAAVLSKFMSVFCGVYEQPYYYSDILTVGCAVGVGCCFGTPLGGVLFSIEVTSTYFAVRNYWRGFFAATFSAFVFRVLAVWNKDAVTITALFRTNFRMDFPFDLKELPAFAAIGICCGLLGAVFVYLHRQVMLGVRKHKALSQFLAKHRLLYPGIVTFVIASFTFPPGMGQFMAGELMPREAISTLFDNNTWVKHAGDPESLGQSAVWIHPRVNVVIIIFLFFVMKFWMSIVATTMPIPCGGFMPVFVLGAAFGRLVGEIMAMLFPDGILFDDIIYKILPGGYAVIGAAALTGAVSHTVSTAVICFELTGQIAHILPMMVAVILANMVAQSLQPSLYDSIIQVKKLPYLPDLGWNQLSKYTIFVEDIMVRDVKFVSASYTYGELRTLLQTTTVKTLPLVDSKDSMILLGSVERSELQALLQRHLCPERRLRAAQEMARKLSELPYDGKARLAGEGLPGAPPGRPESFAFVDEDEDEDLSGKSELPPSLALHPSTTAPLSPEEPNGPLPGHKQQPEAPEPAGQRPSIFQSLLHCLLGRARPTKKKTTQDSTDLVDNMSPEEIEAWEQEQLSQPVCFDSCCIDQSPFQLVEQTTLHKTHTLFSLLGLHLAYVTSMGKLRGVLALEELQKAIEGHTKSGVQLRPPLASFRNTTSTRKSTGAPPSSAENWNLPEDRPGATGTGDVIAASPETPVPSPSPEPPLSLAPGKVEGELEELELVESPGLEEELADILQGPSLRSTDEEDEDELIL
Experimental: If the IC50 was greater than the highest concentration tested, this concentration is listed along with the percent inhibition at this concentration (in parenthesis).
FIG. 8, panels A and B depict graphically the Selectivity between CLC-1 and CLC-2. […] Data points represent the mean current block at 16 different FA44 concentrations (n=4-8), using the IonWorks™ Barracuda. […] Panel B depicts a summary graph showing the mean inhibition of CLC-1 (left bar) or CLC-2 (right bar) current at 30 μM, illustrating the improvement in both selectivity and potency from the hit compound MCFA to the exemplary compound FA44.

CLC-2 [2] = target: T1, CLC-2; conditions: cited from earlier work
[3] = n = 4 cells, four concentrations of each compound, IonWorks Barracuda, read-out: IC50 (μM) against CLC-2
[4] = Table 2, read-out: IC50 (CLC-2)

% inhibition at the concentration listed (in parenthesis) (CLC-2 [1])	IC50 (CLC-2 [1]; [3])	SMILES	further results
(13%)	> 120 µM	O=C(O)c1ccccc1Nc1ccc(Cl)cc1Cl [AK2-200A]	–
(12%)	> 120 µM	O=C(O)c1ccccc1Nc1ccc(Cl)c(Cl)c1 [AK2-200B]	–
(43%)	> 120 µM	Cc1cccc(Nc2ccccc2C(=O)O)c1Cl [AK2-200C]	–
(48%)	> 120 µM	Cc1ccc(Cl)c(Nc2ccccc2C(=O)O)c1 [AK2-214A]	–
(28%)	> 120 µM	Cc1ccc(Cl)c(Nc2ccccc2OS(=O)(=O)O)c1Cl [AK2-262]	–
–	35.7 µM	O=C(O)c1ccccc1Nc1c(Cl)ccc(C(F)(F)F)c1Cl [AK2-270A]	–
–	24.7 µM	Cc1ccc(C(=O)O)c(Nc2c(Cl)ccc(C)c2Cl)c1 [AK2-288A]	–
–	7.16 µM	C=C(C)c1ccc(Cl)c(Nc2ccccc2C(=O)O)c1Cl [AK2-289B]	–
–	23.4 µM	Cc1cccc(C)c1Nc1ccccc1C(=O)O [AK2-289C]	–
–	33.4 µM	Cc1ccc(Cl)c(Nc2ccccc2-c2nnn[nH]2)c1Cl [AK3-89]	–
(36%)	> 141 µM	Cc1ccc(Cl)c(Nc2cccc(C(=O)O)c2)c1Cl [AK3-97A]	–
(8%)	> 144 µM	Cc1ccc(Cl)c(Nc2ccc(C(=O)O)cc2)c1Cl [AK3-97B]	–
–	86.3 µM	CCc1cccc(CC)c1Nc1ccccc1C(=O)O [AK3-97C]	–
–	13.7 µM	Cc1ccc(Cl)c(Nc2cc(F)ccc2C(=O)O)c1Cl [AK3-98A]	–
(−16%)	> 69 µM	Cc1ccc(Cl)c2[nH]c3c(C(=O)O)ccc(F)c3c12 [AK3-98B]	–
–	12.6 µM	O=C(O)c1ccccc1Nc1c(Cl)ccc(-c2ccccc2)c1Cl [AK3-100A]	–

% inhibition at the concentration listed (in parenthesis) (CLC-2 [1])	IC50 (CLC-2 [1]; [3])	SMILES	further results
–	2.98 µM	O=C(O)c1ccccc1Nc1c(Cl)ccc(OCC2CCCCC2)c1Cl [AK3-101A]	–
–	5.29 µM	COc1ccccc1-c1ccc(Cl)c(Nc2ccccc2C(=O)O)c1Cl [AK3-101B]	–
–	48.8 µM	O=C(O)c1ccccc1Nc1c(Cl)ccc(C2=CCCCC2)c1Cl [AK3-103B]	–
(16%)	> 42 µM	Cc1ccc(Cl)c(Nc2ccncc2C(=O)O)c1Cl [AK3-107B]	–
–	115 µM	Cc1ccc(Cl)c(Nc2cnccc2C(=O)O)c1Cl [AK3-108A]	–
–	1.79 µM	Cc1ccc(Cl)c(Nc2ncccc2C(=O)O)c1Cl [AK3-108B]	IC50 (CLC-2 [1]; [4]): 4 ± 0.7 µM; IC50 (CLC-1): > 30 µM; percent inhibition of CLC-1 at highest concentration tested (in parenthesis) (CLC-1; at the concentration listed in the same cell): 5%
–	42.4 µM	Cc1ccc(Cl)c(Nc2ccccc2C(N)=O)c1Cl [AK3-124]	–
(15%)	> 120 µM	NC(=O)c1ccc(COc2ccc(Cl)c(Nc3ccccc3C(=O)O)c2Cl)cc1 [AK3-219]	–
(4%)	> 120 µM	O=C(O)c1ccc(COc2ccc(Cl)c(Nc3ccccc3C(=O)O)c2Cl)cc1 [AK3-224]	–
(0%)	> 120 µM	NC(=O)c1ccccc1COc1ccc(Cl)c(Nc2ccccc2C(=O)O)c1Cl [AK3-225]	–
(5%)	> 120 µM	NC(=O)c1cccc(COc2ccc(Cl)c(Nc3ccccc3C(=O)O)c2Cl)c1 [AK3-226]	–
–	1.16 µM	O=C(O)c1ccccc1Nc1c(Cl)ccc(OCc2ccccc2F)c1Cl [AK3-261]	–
(7%)	> 120 µM	NCCOc1ccc(Cl)c(Nc2ccccc2C(=O)O)c1Cl [AK3-296]	–
(27%)	> 312 µM	O=C(O)c1ccccc1Nc1ccccc1 [DPC, reference compound]	potency of previously reported small-molecule inhibitors of CLC-2 (CLC-2 [2]): mM range
(0%)	> 120 µM	O=C(O)c1cccnc1Nc1cccc(C(F)(F)F)c1 [NFA, reference compound]	–

More lines, now with the values behind:

SMILES	% inhibition at the concentration listed (in parenthesis) (CLC-2 [1])	IC50 (CLC-2 [1]; [3])	further results
O=C(O)c1ccccc1Nc1c(Cl)cccc1Cl [AK2-209A]	–	22.1 µM	–
O=C(O)c1ccccc1Nc1cc(Cl)ccc1Cl [AK2-209B]	(23%)	> 120 µM	–
O=C(O)c1ccccc1Nc1c(Cl)cc(Cl)cc1Cl [AK2-214B]	(22%)	> 120 µM	–
O=C(O)c1ccccc1Nc1c(F)cccc1F [AK2-214C]	(41%)	> 120 µM	–
O=C(O)c1cccc2c1[nH]c1c(Cl)ccc(C(F)(F)F)c12 [AK2-270B]	(−48%)	> 120 µM	–
Cc1ccc(Cl)c(Nc2cccc(C)c2C(=O)O)c1Cl [AK2-288C]	(37%)	> 102 µM	–
COc1ccc(Cl)c(Nc2ccccc2C(=O)O)c1Cl [AK2-289A]	–	9.86 µM	–
CCc1ccc(Cl)c(Nc2ccccc2C(=O)O)c1Cl [AK2-292]	–	7.69 µM	–
COCOc1ccc(Cl)c(Nc2ccccc2C(=O)O)c1Cl [AK3-99A]	–	2.04 µM	–
O=C(O)c1ccccc1Nc1c(Cl)ccc(O)c1Cl [AK3-102A]	–	3.6 µM	–
Cc1ccc(Cl)c(Nc2cccnc2C(=O)O)c1Cl [AK3-107A]	(12%)	> 222 µM	–
Cc1ccc(Cl)c(Nc2ccccc2P(=O)(O)O)c1Cl [AK3-118]	(6%)	> 195 µM	–
CCOP(=O)(O)c1ccccc1Nc1c(Cl)ccc(C)c1Cl [AK3-119]	(41%)	> 354 µM	–
CC(=O)Nc1cccc(COc2ccc(Cl)c(Nc3ccccc3C(=O)O)c2Cl)c1 [AK3-227]	–	81.9 µM	–
O=C(O)c1cccc(COc2ccc(Cl)c(Nc3ccccc3C(=O)O)c2Cl)c1 [AK3-239]	–	17.9 µM	–
O=C(O)c1ccccc1COc1ccc(Cl)c(Nc2ccccc2C(=O)O)c1Cl [AK3-250]	–	67.8 µM	–
O=C(O)c1cccc2c1[nH]c1c(Cl)ccc(OCc3ccccc3)c12 [AK3-251]	(5%)	> 120 µM	–
O=C(CCCC[C@@H]1SC[C@@H]2NC(=O)N[C@@H]21)NCCOCCOCCOCCOCCC(=O)NCCOc1ccc(Cl)c(Nc2ccccc2C(=O)O)c1Cl [AK3-294]	–	77.1 µM	–
O=C(O)c1c2ccccc2cc2ccccc12 [Compound 9-AC]	–	–	potency of previously reported small-molecule inhibitors of CLC-2 (CLC-2 [2]): mM range
O=S(=O)(O)c1cc(N=C=S)ccc1C=Cc1ccc(N=C=S)cc1S(=O)(=O)O [DIDS]	–	–	potency of previously reported small-molecule inhibitors of CLC-2 (CLC-2 [2]): mM range
Cc1cccc(COc2ccc(Cl)c(Nc3ccccc3C(=O)O)c2Cl)c1 [EEGI-054]	–	7.93 µM	–
Cc1ccccc1COc1ccc(Cl)c(Nc2ccccc2C(=O)O)c1Cl [EEGI-055]	–	1.2 µM	–
Cc1ccc(COc2ccc(Cl)c(Nc3ccccc3C(=O)O)c2Cl)cc1 [EEGI-056]	–	15.8 µM	–
O=C(O)c1ccccc1Nc1c(Cl)ccc(OCCc2ccccc2)c1Cl [EEGI-060]	–	7.32 µM	–
Cc1ccc(Cl)c(Nc2ccccc2C(=O)O)c1Cl [MCFA, meclofenamate, reference compound]	–	14 µM and 13.9 µM	IC50 (CLC-2 [1]; [4]): 8.7 ± 0.3 µM; IC50 (CLC-1): 60 ± 9 µM
O=C(O)c1cc([N+](=O)[O-])ccc1NCCCc1ccccc1 [NPPB]	–	–	potency of previously reported small-molecule inhibitors of CLC-2 (CLC-2 [2]): mM range
